Test results published in patent US12187723B2 (BRISTOL-MYERS SQUIBB COMPANY, priority 2019, dated 2025).

What was measured:
human TLR8 = target: T1, human TLR8 (Homo sapiens, UniProt Q9NR97); experiment: TLR8 inhibition reporter assay (HEK-Blue SEAP); assay type: cell-based; settings: HEK-Blue cells overexpressing human TLR8, R848 15.9 μM, 22 hour incubation
T1 construct: host or cells: HEK-Blue cells
T1 sequence (Q9NR97 27-1041): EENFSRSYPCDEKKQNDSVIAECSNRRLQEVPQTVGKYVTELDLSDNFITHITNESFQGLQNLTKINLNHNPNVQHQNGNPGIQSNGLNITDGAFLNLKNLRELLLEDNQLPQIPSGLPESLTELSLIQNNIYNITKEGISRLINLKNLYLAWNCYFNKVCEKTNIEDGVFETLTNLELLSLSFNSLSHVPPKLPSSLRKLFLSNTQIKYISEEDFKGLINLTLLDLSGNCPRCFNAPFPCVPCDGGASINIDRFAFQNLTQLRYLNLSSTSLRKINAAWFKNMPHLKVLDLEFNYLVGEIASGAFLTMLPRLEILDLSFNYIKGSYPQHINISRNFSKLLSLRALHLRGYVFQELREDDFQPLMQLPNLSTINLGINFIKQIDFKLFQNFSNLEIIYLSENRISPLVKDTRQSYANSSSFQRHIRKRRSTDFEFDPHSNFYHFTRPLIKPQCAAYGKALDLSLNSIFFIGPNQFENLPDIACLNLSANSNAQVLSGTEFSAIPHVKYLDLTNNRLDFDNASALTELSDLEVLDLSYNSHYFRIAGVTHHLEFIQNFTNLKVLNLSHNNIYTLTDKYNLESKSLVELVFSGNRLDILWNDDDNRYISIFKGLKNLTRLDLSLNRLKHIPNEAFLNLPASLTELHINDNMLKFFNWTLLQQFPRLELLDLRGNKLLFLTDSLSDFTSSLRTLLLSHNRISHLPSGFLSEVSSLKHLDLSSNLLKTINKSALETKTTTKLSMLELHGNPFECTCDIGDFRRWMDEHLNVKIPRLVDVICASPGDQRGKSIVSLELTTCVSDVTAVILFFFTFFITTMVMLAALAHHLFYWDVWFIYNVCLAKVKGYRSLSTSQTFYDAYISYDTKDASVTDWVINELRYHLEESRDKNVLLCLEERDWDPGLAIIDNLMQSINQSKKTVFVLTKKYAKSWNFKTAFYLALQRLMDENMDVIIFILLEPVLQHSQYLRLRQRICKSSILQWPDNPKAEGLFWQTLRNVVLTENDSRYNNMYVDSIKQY
Method in brief: (§1)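 HEK-Blue cells overexpressing human TLR7, TLR8 or TLR9 carry a SEAP reporter driven by NF-κB/AP-1 sites. Compounds (0.05 nM–50 μM) were preincubated 30 min at room temperature, then cells were stimulated with gardiquimod 7.5 μM (TLR7), R848 15.9 μM (TLR8) or ODN2006 5 nM (TLR9) for 22 h at 37 °C.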

human TLR9 = target: T2, human TLR9 (Homo sapiens, UniProt Q9NR96); experiment: TLR9 inhibition reporter assay (HEK-Blue SEAP); assay type: cell-based; settings: HEK-Blue cells overexpressing human TLR9, ODN2006 5 nM, 22 hour incubation
T2 construct: host or cells: HEK-Blue cells
T2 sequence (Q9NR96 26-1032): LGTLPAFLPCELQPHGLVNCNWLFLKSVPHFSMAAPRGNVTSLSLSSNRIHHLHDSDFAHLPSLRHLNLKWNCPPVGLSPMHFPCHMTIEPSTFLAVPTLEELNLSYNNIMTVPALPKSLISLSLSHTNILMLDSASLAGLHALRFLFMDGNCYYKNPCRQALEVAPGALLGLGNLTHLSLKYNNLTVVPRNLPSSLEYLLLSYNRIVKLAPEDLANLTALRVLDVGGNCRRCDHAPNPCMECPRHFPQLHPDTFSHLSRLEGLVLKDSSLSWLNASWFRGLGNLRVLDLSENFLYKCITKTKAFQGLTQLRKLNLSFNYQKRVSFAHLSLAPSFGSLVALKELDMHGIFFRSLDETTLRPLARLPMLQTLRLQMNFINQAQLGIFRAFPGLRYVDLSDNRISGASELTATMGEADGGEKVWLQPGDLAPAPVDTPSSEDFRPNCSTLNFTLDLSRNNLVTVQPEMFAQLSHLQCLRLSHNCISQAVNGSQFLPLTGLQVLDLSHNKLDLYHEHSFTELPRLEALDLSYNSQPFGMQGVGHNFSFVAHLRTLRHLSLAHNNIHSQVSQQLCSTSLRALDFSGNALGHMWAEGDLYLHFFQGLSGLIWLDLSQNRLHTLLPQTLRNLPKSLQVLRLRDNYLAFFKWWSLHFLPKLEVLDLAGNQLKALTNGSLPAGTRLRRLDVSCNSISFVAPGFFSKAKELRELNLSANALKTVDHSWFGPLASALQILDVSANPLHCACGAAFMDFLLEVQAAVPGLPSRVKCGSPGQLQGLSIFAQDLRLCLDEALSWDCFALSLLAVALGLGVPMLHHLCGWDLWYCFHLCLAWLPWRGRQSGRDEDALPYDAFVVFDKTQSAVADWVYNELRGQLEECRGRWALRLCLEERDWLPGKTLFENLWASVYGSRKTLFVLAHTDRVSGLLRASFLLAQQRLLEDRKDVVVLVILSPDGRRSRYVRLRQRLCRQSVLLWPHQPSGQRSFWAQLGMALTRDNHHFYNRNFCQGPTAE
Method in brief: as §1

Row | SMILES | IC50 (human TLR8) [nM] | IC50 (human TLR9) [µM]
1 | COc1cc(-c2cc3[nH]c(=O)n([C@H]4CCCN(CC5CCC5)C4)c3cc2C(C)C)cn2ncnc12 [Example 133, (S)-1-(1-(cyclobutylmethyl)piperidin-3-yl)-6-isopropyl-5-(8-methoxy-[1,2,4]triazolo[1,5-a]pyridin-6-yl)-1,3-dihydro-2H-benzo[d]imidazol-2-one] | 5.9 | 7.14
2 | CCCN1CCC[C@@H](n2c(=O)[nH]c3cc(-c4cc(OC)c5ncnn5c4)c(C(C)C)cc32)C1 [Example 134, (R)-6-isopropyl-5-(8-methoxy-[1,2,4]triazolo[1,5-a]pyridin-6-yl)-1-(1-propylpiperidin-3-yl)-1,3-dihydro-2H-benzo[d]imidazol-2-one] | 5.93 | 9.33
3 | COc1cc(-c2cc3[nH]c(=O)n([C@@H]4CCCN(C5COC5)C4)c3cc2C(C)C)cn2ncnc12 [Example 135, (R)-6-isopropyl-5-(8-methoxy-[1,2,4]triazolo[1,5-a]pyridin-6-yl)-1-(1-(oxetan-3-yl)piperidin-3-yl)-1,3-dihydro-2H-benzo[d]imidazol-2-one] | 20 | > 50
4 | CCN1CCC[C@@H](n2c(=O)[nH]c3cc(-c4cc(OC)c5ncnn5c4)c(C(C)C)cc32)C1 [Example 138, (R)-1-(1-ethylpiperidin-3-yl)-6-isopropyl-5-(8-methoxy-[1,2,4]triazolo[1,5-a]pyridin-6-yl)-1,3-dihydro-2H-benzo[d]imidazol-2-one] | 2.64 | 17.9
5 | COc1cc(-c2cc3[nH]c(=O)n([C@@H]4CCCN(CC5CCC5)C4)c3cc2C(C)C)cn2ncnc12 [Example 140, (R)-1-(1-(cyclobutylmethyl)piperidin-3-yl)-6-isopropyl-5-(8-methoxy-[1,2,4]triazolo[1,5-a]pyridin-6-yl)-1,3-dihydro-2H-benzo[d]imidazol-2-one] | 3.92 | 6.46
6 | COc1cc(-c2cc3[nH]c(=O)n([C@@H]4CCCN(C5CCOCC5)C4)c3cc2C(C)C)cn2ncnc12 [Example 143, (R)-6-isopropyl-5-(8-methoxy-[1,2,4]triazolo[1,5-a]pyridin-6-yl)-1-(1-(tetrahydro-2H-pyran-4-yl)piperidin-3-yl)-1,3-dihydro-2H-benzo[d]imidazol-2-one] | 3.24 | 10.2
7 | Cc1c(-c2cc3[nH]c(=O)n([C@@H]4CCCN(C5COC5)C4)c3cc2C(C)C)cn2ncnc2c1C [Example 146, (R)-5-(7,8-dimethyl-[1,2,4]triazolo[1,5-a]pyridin-6-yl)-6-isopropyl-1-(1-(oxetan-3-yl)piperidin-3-yl)-1,3-dihydro-2H-benzo[d]imidazol-2-one] | 6.05 | > 50
8 | Cc1c(-c2cc3[nH]c(=O)n([C@@H]4CCCN(C)C4)c3cc2C(C)C)cn2ncnc2c1C [Example 147, (R)-5-(7,8-dimethyl-[1,2,4]triazolo[1,5-a]pyridin-6-yl)-6-isopropyl-1-(1-methylpiperidin-3-yl)-1,3-dihydro-2H-benzo[d]imidazol-2-one] | 23.5 | > 50
9 | Cc1c(-c2cc3[nH]c(=O)n([C@@H]4CCCN(CC5CCOCC5)C4)c3cc2C(C)C)cn2ncnc2c1C [Example 149, (R)-5-(7,8-dimethyl-[1,2,4]triazolo[1,5-a]pyridin-6-yl)-6-isopropyl-1-(1-((tetrahydro-2H-pyran-4-yl)methyl)piperidin-3-yl)-1,3-dihydro-2H-benzo[d]imidazol-2-one] | 4.58 | 15.7
10 | CCCN1CCC[C@@H](n2c(=O)[nH]c3cc(-c4cn5ncnc5c(C)c4C)c(C(C)C)cc32)C1 [Example 150, (R)-5-(7,8-dimethyl-[1,2,4]triazolo[1,5-a]pyridin-6-yl)-6-isopropyl-1-(1-propylpiperidin-3-yl)-1,3-dihydro-2H-benzo[d]imidazol-2-one] | 4.25 | 11.9

Now those with a lower IC50 (human TLR8), led by results:

Row | IC50 (human TLR8) [nM] | IC50 (human TLR9) [µM] | SMILES
11 | 2.01 | 14.9 | COc1cc(-c2cc3[nH]c(=O)n([C@@H]4CCCN(C)C4)c3cc2C(C)C)cn2ncnc12 [Example 136, (R)-6-isopropyl-5-(8-methoxy-[1,2,4]triazolo[1,5-a]pyridin-6-yl)-1-(1-methylpiperidin-3-yl)-1,3-dihydro-2H-benzo[d]imidazol-2-one]
12 | 1.37 | 7.07 | COc1cc(-c2cc3[nH]c(=O)n([C@@H]4CCCN(C(C)C)C4)c3cc2C(C)C)cn2ncnc12 [Example 137, (R)-6-isopropyl-1-(1-isopropylpiperidin-3-yl)-5-(8-methoxy-[1,2,4]triazolo[1,5-a]pyridin-6-yl)-1,3-dihydro-2H-benzo[d]imidazol-2-one]
13 | 1.27 | 7.81 | COc1cc(-c2cc3[nH]c(=O)n([C@@H]4CCCN(CC5CCOCC5)C4)c3cc2C(C)C)cn2ncnc12 [Example 139, (R)-6-isopropyl-5-(8-methoxy-[1,2,4]triazolo[1,5-a]pyridin-6-yl)-1-(1-((tetrahydro-2H-pyran-4-yl)methyl)piperidin-3-yl)-1,3-dihydro-2H-benzo[d]imidazol-2-one]
14 | 0.56 | 3.88 | COc1cc(-c2cc3[nH]c(=O)n([C@@H]4CCCN(CC(C)C)C4)c3cc2C(C)C)cn2ncnc12 [Example 141, (R)-1-(1-isobutylpiperidin-3-yl)-6-isopropyl-5-(8-methoxy-[1,2,4]triazolo[1,5-a]pyridin-6-yl)-1,3-dihydro-2H-benzo[d]imidazol-2-one]
15 | 2.2 | 6.02 | COc1cc(-c2cc3[nH]c(=O)n([C@@H]4CCCN(CC5CC5)C4)c3cc2C(C)C)cn2ncnc12 [Example 142, (R)-1-(1-(cyclopropylmethyl)piperidin-3-yl)-6-isopropyl-5-(8-methoxy-[1,2,4]triazolo[1,5-a]pyridin-6-yl)-1,3-dihydro-2H-benzo[d]imidazol-2-one]
16 | 2.1 | 14.3 | Cc1c(-c2cc3[nH]c(=O)n([C@@H]4CCCN(C(C)C)C4)c3cc2C(C)C)cn2ncnc2c1C [Example 145, (R)-5-(7,8-dimethyl-[1,2,4]triazolo[1,5-a]pyridin-6-yl)-6-isopropyl-1-(1-isopropylpiperidin-3-yl)-1,3-dihydro-2H-benzo[d]imidazol-2-one]
17 | 1.09 | 9.61 | CCC(CC)CN1CCC[C@@H](n2c(=O)[nH]c3cc(-c4cc(OC)c5ncnn5c4)c(C(C)C)cc32)C1 [Example 148, (R)-1-(1-(2-ethylbutyl)piperidin-3-yl)-6-isopropyl-5-(8-methoxy-[1,2,4]triazolo[1,5-a]pyridin-6-yl)-1,3-dihydro-2H-benzo[d]imidazol-2-one]
